Source: paper PMC4569415, “Pro-Oxidant Activity of Amine-Pyridine-Based Iron Complexes Efficiently Kills Cancer and Cancer Stem-Like Cells” (PLoS ONE, 2015)
Read-outs that look alike come from different tables or passages of the source.

Columns and labels:
[1] = system: CAPAN-1 cells; test: Cellular labile iron pool with calcein-AM; assay type: cell-based, human; conditions: CAPAN-1, 10 μmol/L, 24 h
Procedure: The cellular labile iron pool was determined with calcein-AM. CAPAN-1 cells (125 000 cells/ well) were seeded in 24-well plates and incubated for 24 h. Then, cells were treated for 24 h with 10 μmol/L of compound 1, 2 or 5 at 37°C. In some experiments, cells were incubated for 2 h with 100 μmol/L of DFO or 100 μmol/L FeCl2. Cells exposed to the vehicle alone were used as a control. After treatments, cells were washed with PBS and incubated with calcein-AM (0.25 μmol/L) for 30 min at 37°C in the dark. Subsequently, cells were washed and collected with trypsin and the geometric mean fluorescence intensity of 10 000 cells was determined by flow cytometry as described.

[2] = system: MCF-7 cells; test: MTT cytotoxicity assay; assay type: cell-based, human; conditions: for IC50: Homo sapiens, MCF7, MTT, 48 h of compound exposure
Procedure: (§1) The cytotoxic activity of the compounds was determined by MTT reduction assay as described. Compounds were diluted in Milli-Q water to obtain 1 mmol/L stock solutions. Appropriate aliquots of these solutions were diluted in the corresponding cell culture medium to obtain the final working concentrations. Aliquots of 5000 1BR3G cells, 6000 MCF-7, 6000 PC-3 cells, 10 000 CAPAN-1 cells, 4000 MCF 10A cells, 4000 HMLE cells or 4000 CCD-18Co cells were seeded in 96-well plates, 24 h prior to the treatments. Hematological cell lines were seeded at 400 000 cells/mL. Cells were treated with the corresponding compound at concentrations ranging from 0 to 100 μmol/L for 48 h. Three replicates for each compound were used. The IC50 was established for each compound by standard non-linear regression and curve fitting using GraphPad Prism (Graph Pad software Inc., La Jolla, CA, USA).

[3] = system: CAPAN-1 cells; test: MTT cytotoxicity assay; assay type: cell-based, human; conditions: for viability at 10 µM / IC50 / viability at 5 µM: Homo sapiens; for viability at 10 µM: CAPAN-1, compound 10 μmol/L; for viability at 10 µM / viability at 5 µM: read-out: CAPAN-1 cell viability; for IC50: CAPAN-1, MTT, 48 h of compound exposure; for viability at 5 µM: CAPAN-1, compound 5 μmol/L
Procedure: as §1

[4] = system: caspase 3/7; test: Caspase-Glo 3/7 luminometric assay; assay type: cell-based; conditions: 10 μmol/L, 48 h, panel of human cancer cell lines
Procedure: Enzymatic caspase activity was determined after exposing the cells to compound 1, 2 and 5 at 10 μmol/L for 48 h. Caspase 3/7 activity was measured with the luminometric Caspase-Glo 3/7assay (Promega, Madison, WI, USA) using a Synergy HT multi-detection microplate reader (Bio-Tek).

[5] = system: MCF-7 and CAPAN-1 cells; test: MTT cell viability with modulators (QVD-Oph, FeCl2); assay type: cell-based, human; conditions: 48 h; for effect of FeCl2 co-incubation on cytotoxicity of the ligand: FeCl2 100 μmol/L co-incubation, 2 at 5 μmol/L, 1 and 5 at 10 μmol/L
Procedure: as §1
Fig 4 Induction of caspase activity. (A) The indicated cell lines were treated for 48 h with compounds 1, 2 and 5 (10 μmol/L) and caspase 3/7 activity was measured as indicated in Materials and Methods. Bar charts show the fold increase in caspase activity relative to untreated (control) and represent the mean±SD from three independent experiments performed in triplicate. (B) MCF-7 and CAPAN-1 cells were treated for 48 h with the ligands (10 μM) in the absence (-) or presence (+) of the pan-caspase inhibitor QVD-Oph (20 μM) and cell viability was measured with the MTT assay. […] Data represents the mean ± SD of 3 independent experiments performed in triplicate. The differences between absence and presence of QVD-OPh treatment were statistically significant at * p<0.05, **p<0.01 and ***p<0.001.
Fig 9 Effects of iron on 1, 2 and 5 activity. (A) Effect of 2 h FeCl2 pre-incubation (FeCl2 p) (dotted line) or co-incubation (FeCl2 c) (dashed line) at 1, 10 or 100 μmol/L on the cytotoxicity of 2 (5 μmol/L) in MCF-7 and CAPAN-1 cells. FeCl2 alone was included as a control (solid line). Cell viability was determined after 48 h of treatment by the MTT assay. (B) Effect of FeCl2 pre-incubation or co-incubation (100 μmol/L) on the cytotoxicity of 2 (5 μmol/L), 1 and 5 (10 μmol/L). Cells treated with the ligands alone were included as a reference (control). (C) ROS induction in CAPAN-1 cells after 24 h treatment with 2 (10 μmol/L) alone, together with FeCl2 or after FeCl2 pre-incubation (at 100 μmol/L). Results are presented as a percentage of untreated cells and represent mean±SD of 3 independent experiments. *p < 0.05 versus control cells.

[6] = system: CS-like HMLER-shEcad cells; test: MTT cytotoxicity assay in cancer stem-like cells; assay type: cell-based, human; conditions: Homo sapiens, 48 h
Procedure: as §1
(§2) Fig 2 Cell viability assay. (A) Cytotoxic activity of compounds 1, 2, and 5 against cancer cells. The indicated cell lines were treated for 48 h with ligands (10 μmol/L) and cell viability was measured with the MTT assay. Data represents the percentage of viable cells relative to untreated cells (control). (B) Cytotoxicity of doxorubicin and compounds 1, 2 and 5 against CS-like cells. CS-like HMLER-shEcad cells and non-CS-like HMLER isogenic parental cells were treated for 48 h with graded concentrations of doxorubicin, 1, 2 and 5. Cell viability was measured with the MTT assay. For each treatment, the percentage of viable cells relative to untreated cells is indicated. Data represents the mean±SD of 3 independent experiments performed in triplicate.

[7] = system: MCF-7 cells; test: Cellular labile iron pool with calcein-AM; assay type: cell-based, human; conditions: MCF-7, pre-incubation with ligands
[8] = system: tumor (PC-3, Z-138 and JURKAT) cell lines; test: MTT cytotoxicity assay, tumor cell selection; assay type: cell-based; conditions: Homo sapiens, range over PC-3, Z-138 and JURKAT, 48 h, read-out: IC50 values against tumor cells (range)
Procedure: as §1

[9] = Hemolytic assay; assay type: cell-based; conditions: human, erythrocyte suspension of fresh human blood (5% vol/vol)
Procedure: The hemolytic activity of the compounds at 100 μmol/L was evaluated by determining hemoglobin release from erythrocyte suspensions of fresh human blood (5% vol/vol) as described.

[10] = system: HMLER cells; test: MTT cytotoxicity assay in non-CS-like parental cells; assay type: cell-based; conditions: Homo sapiens, 48 h
Procedure: as §1, §2

[11] = system: MCF-7 cells; test: Cellular DNA damage, p-H2A.X flow cytometry; assay type: cell-based, human; conditions: MCF-7, 10 μmol/L, time-dependent
Procedure: DNA damage was assessed by monitoring the intensity of p-H2A.X fluorescence using flow cytometry. Briefly, cells were collected with trypsin, washed in PBS and fixed in 3.7% formaldehyde for 15 min on ice. Cells were then permeabilised with 0.2% v/v Triton-X100 for 10 min and incubated with 1:400 rabbit anti-p-(S139)-H2A.X antibody (Cell Signaling Technology, Danvers, MA) for 30 min on ice. After washing in 0.1% Triton-X100 in PBS, cells were incubated with 1:400 anti-rabbit Alexa 555-conjugated antibody (Jackson ImmunoResearch, Newmarket, UK) for 20 min on ice. Analysis was carried out in a FACScan flow cytometer with Flowing software.

[12] = compound 10 μmol/L, FeCl2 100 μmol/L pre-incubation
[13] = compound 5 μmol/L, pretreated with 100 μmol/L FeCl2 for 2 h

SMILES	calcein fluorescence intensity, % of untreated cells [1]	IC50 [2]	IC50 [3]	caspase 3/7 activation [4]	effect of FeCl2 co-incubation on cytotoxicity of the ligand [5]	IC50 [6]	calcein fluorescence compared with untreated cells [7]	IC50 [8]	hemolysis at 100 µM [9]	IC50 [10]	increase in phosphorylated H2A.X [11]	further results
c1ccc(CN2CCC[C@H]2[C@@H]2CCCN2Cc2ccccn2)nc1 [Compound 1]	141.4±19.5%	7.4 ± 0.2 µM	9.9 ± 1.01 µM	significant caspase 3/7 activation in lymphoma (Z-138, Jeko-1, Granta and SP-53) but not in leukemia (JURKAT) or glioma (LN229 and U87MG) cell lines	inhibited the cytotoxicity of the ligand in CAPAN-1, but not in MCF-7 cells	5.3 ± 0.7 µM	131.4±13.2%	4.8 to 15.1 µM	0%	6.5 ± 0.4 µM	three fold	enhancement of cytotoxicity by FeCl2 pretreatment, MCF-7 [2, 12]: 58.6%; viability at 10 µM ([3]; presence of NAC): 45.2 ± 5.4%; viability at 10 µM ([3]; without NAC): 40.7 ± 6.9%; enhancement of cytotoxicity by FeCl2 pretreatment, CAPAN-1 [3, 12]: 25.5%
CN(C)c1ccnc(CN2CCC[C@H]2[C@@H]2CCCN2Cc2cc(N(C)C)ccn2)c1 [Compound 2]	136.8±11.7%	3.7 ± 0.4 µM	6 ± 0.7 µM	clearly increased caspase 3/7 activity in all cell lines	clearly inhibited	6.8 ± 0.1 µM	133.8±10.02%	3.8 to 7.2 µM	0%	6.6 ± 0.3 µM	three fold	reduction in MCF-7 cell viability in FeCl2-pretreated cells [2, 13]: 51.8%; viability at 5 µM ([3]; absence of NAC): 23.9 ± 2.9%; viability at 5 µM ([3]; presence of 5 mmol/L NAC): 33.6 ± 3.8%; increase in cell survival by NAC ([3]; compound 5 μmol/L, 5 mmol/L NAC): 40.6%; reduction in CAPAN-1 cell viability in FeCl2-pretreated cells [3, 13]: 37.7%; increase in cell viability by pan-caspase inhibitor QVD-Oph ([5]; ligand 10 μM, QVD-Oph 20 μM): lack of reversion
CN1CCN(Cc2ccccn2)CCN(Cc2ccccn2)CC1 [Compound 5]	144.6±13.8%	7.7 ± 0.3 µM	7.9 ± 0.5 µM	activating caspase 3/7 in most cell lines except PC-3 cells	Neither pretreatment nor co-incubation with FeCl2 affected	8.6 ± 0.5 µM	only a moderate iron-chelating effect	2.9 to 7.7 µM	0%	5.1 ± 0.1 µM	four fold	effect of NAC on cytotoxicity ([3]; CAPAN-1, NAC 5 mmol/L): no protective effect of NAC
